Measurements: US5206382A, “Indole derivatives, pharmaceutical compositions and methods of treating neurological and psychiatric disorders” (Fidia Georgetown Institute for the Neurosciences, priority 1991, dated 1993)
Like-named read-outs stand apart in the source and are kept apart here.

Assays:
GABAA receptors = conditions: in words; cited from earlier work
[1] = Sedation and ataxia in rats; conditions: rat, in vivo, ratio of doses, read-out: anxiolytic doses lower than the doses that produce sedation and ataxia
[2] = target: T1, MBR (mitochondrial benzodiazepine recognition site) (Rattus norvegicus, UniProt P16257); experiment: Displacement of ^3 H-RO5-4864 from mitochondrial BZD recognition site (MBR); assay type: binding, Sprague Dawley rat; conditions: displacement of 1 nM ^3 H-RO5-4864, rat mitochondria; range in parentheses
T1 construct: Brain and adrenal glands were removed and homogenized with Polytron; from tissue; host or cells: mitochondrial fraction of Sprague Dawley rat brain and adrenal glands
Procedure: (§1) Mitochondrial Preparation: Sprague Dawley rats (200-250 gr.) were killed by decapitation. Brain and adrenal glands were removed and homogenized with Polytron for 15 minutes in ice cold buffer (10 mM Na/KPO4, 0.32M sucrose, pH 7.4). The homogenate was centrifuged for 15 minutes at 6,500 xg at 4° C. The resulting supernatant was centrifuged for 15 minutes at […] at 4° C. The pellet was suspended in buffer (20 times) by gentle homogenization and centrifuged at 10,000 xg at 4° C. for 15 minutes. The washed mitochondrial pellet was stored at -70° C.
(§2) For the binding assay the mitochondrial fraction was diluted with 50 mM Na/KPO4 buffer (pH 7.4) to give a final protein concentration of […] in 100 μl buffer. This suspension was incubated with 1 nM of ^3 H PK-11195 or ^3 H RO 5-4864 (50 μl) with or without 10/μM unlabeled PK-11195 or RO 5-4864 to assess the extent of total and non-specific binding. Different amounts of indole derivatives were added to the incubation medium in a volume of 50 μl. After incubation for 60 minutes at 4° C., samples were filtered and the radioactivity was measured in a scintillation counter.

[3] = target: T2, BZD binding site located on the GABAA receptor (Rattus norvegicus, UniProt P18508+P62813); experiment: ^3 H-FLUMAZENIL binding, crude synaptic membranes; set-up: species or system Sprague Dawley rat; conditions: 2 nM ^3 H-FLUMAZENIL, rat cerebellum membranes
T2 construct: The cerebella were removed and incubated for 20 minutes in ice cold double distilled water; from tissue; host or cells: crude synaptic membranes of Sprague Dawley rat cerebellum
T2 sequence (P62813 28-455): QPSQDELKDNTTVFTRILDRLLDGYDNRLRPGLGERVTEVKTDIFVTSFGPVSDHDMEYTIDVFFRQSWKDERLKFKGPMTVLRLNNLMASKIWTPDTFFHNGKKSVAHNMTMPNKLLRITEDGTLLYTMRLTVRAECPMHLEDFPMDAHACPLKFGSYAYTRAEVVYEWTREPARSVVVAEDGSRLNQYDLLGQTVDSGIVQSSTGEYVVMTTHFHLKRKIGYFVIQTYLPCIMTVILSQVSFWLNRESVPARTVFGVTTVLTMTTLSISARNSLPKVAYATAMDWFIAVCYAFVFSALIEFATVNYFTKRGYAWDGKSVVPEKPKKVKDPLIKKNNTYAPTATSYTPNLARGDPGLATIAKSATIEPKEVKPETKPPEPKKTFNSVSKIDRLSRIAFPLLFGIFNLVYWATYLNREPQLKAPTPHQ
T2 sequence (P18508 39-466): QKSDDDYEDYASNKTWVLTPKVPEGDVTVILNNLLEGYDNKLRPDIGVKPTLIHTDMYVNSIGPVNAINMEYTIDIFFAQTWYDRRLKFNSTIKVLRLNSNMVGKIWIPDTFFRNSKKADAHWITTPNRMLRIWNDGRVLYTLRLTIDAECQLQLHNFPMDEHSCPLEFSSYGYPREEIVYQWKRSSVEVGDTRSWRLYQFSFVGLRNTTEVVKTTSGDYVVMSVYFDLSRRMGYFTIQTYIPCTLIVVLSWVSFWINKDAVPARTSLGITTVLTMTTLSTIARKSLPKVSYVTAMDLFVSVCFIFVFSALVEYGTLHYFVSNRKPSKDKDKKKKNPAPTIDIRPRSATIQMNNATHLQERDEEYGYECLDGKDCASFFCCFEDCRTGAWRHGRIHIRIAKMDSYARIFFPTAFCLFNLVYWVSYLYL
Procedure: (§3) Crude Synaptic Membrane Preparation: Sprague Dawley rats (200-250 gr.) were killed by decapitation. The cerebella were removed and incubated for 20 minutes in ice cold double distilled water after homogenization with Polytron. The homogenate was centrifuged at 18,000 xg at 4° C. for 10 minutes. The pellet was suspended in ice-cold buffer 50 mM Na/KPO4(pH 7.4) and centrifuged at 18,000 xg at 4° C. for 10 minutes. After two other centrifugations, the membranes were suspended in 5 ml of buffer and the proteins were measured.
(§4) The membranes were diluted with 50 mM Na/KPO4 buffer (pH 7.4) to a concentration of 150 μg of protein/ml, and 150 μl aliquots of the suspension were incubated with 50 μl of the different ligands to be tested: ^3 H-ZOLPIDEM(2 nM), ^3 H-FLUMAZENIL (2 nM), ^3 H-GABA(10 nM), ^3 H-MK 801(5 nM), ^3 H-KETANSERIN(1 nM), ^3 H-GLYCINE(20 nM), ^3 H-SPIPERONE(1 nM), ^3 H-AMPA(10 nM), ^3 H-3-PPP(1 nM), and ^3 H-NALOXONE(1 nM). Non-specific binding was assessed by displacing with 10 to 1000/μM of cold ligand.

[4] = system: mitochondrial pregnenolone formation, C6-2B glioma cells; experiment: Pregnenolone formation in glial mitochondria (C6-2B glioma cells); assay type: biochemical; conditions: for Effective concentration, maximal / EC50: C6 glial cell mitochondria, 15 minutes at 37° C.; for EC50: read-out: Effective concentration, 50%; for Stimulation %: pregnenolone formation, increase over the control
Procedure: The mixture was preincubated for 5 minutes at 37° C. The incubation mixture was extracted with 5 ml chloroform/methanol (2:1, vol/vol), and the organic phase was evaporated to dryness. Pregnenolone was measured by a specific radioimmunoassay using an antibody obtained from Radioassay Systems Laboratories, Carson, Calif.

[5] = target: T1, MBR (mitochondrial benzodiazepine recognition site); experiment: Displacement of ^3 H-PK11195 from mitochondrial BZD recognition site (MBR); assay type: binding, Sprague Dawley rat; conditions: for IC50: displacement of 1 nM ^3 H-PK11195, rat mitochondria, range in parentheses; for ^3 H-PK11195 / ^3 H-RO5-4864: ratio of the two IC50 values
Procedure: as §1, §2

Sprague Dawley rats = experiment: Elevated X maze test; assay type: in vivo, Sprague Dawley rat; conditions: for Entries in open arms, test after 10 min injection / Entries in open arms, test after 20 min injection / Entries in open arms, test after 30 min injection: rats; for anxiolytic potency ranking / behavioral output of rats in the elevated X maze test: in words
Procedure: The elevated X maze is a behavioral test to detect anxiolytic drugs in rodents. […] The plus-maze consists of two open arms (43×8 cm) and two similarly sized enclosed arms with 9 cm high walls, arranged so that the arms of the same type are opposite each other. There is a central square of 8 cm. The apparatus is elevated to a height of 10 cm and each arm is divided into 3 squares.
Sprague Dawley rats weighing 200-250 gr. were housed in a room with a 12 hour light: 12 hour dark cycle and were allowed free access to food and water. After an i.v. injection of different indole derivatives, the rats were kept separated for 10, 20 or 30 minutes before testing. The testing period commenced when each animal was placed onto the central square of the maze. The number of entries in each arm was then recorded for 5 minutes. The maze was cleaned with water after each trial. The number of entries in the open arms provided a measure of anxiolytic activity of the drugs.

[6] = target: ^3 H-GABA binding (crude synaptic membrane); experiment: ^3 H-GABA binding, crude synaptic membranes; set-up: species or system Sprague Dawley rat; conditions: 10 nM ^3 H-GABA, rat cerebellum membranes
Procedure: as §3
as §4, with “ligand. The different indole derivatives were added in a volume of 50 μl in a concentration varying from 10^-9 to 10^-3 M. The results are reported in Table I hereinbelow.” for “ligand.”

[7] = target: T3, ^3 H-ZOLPIDEM binding (crude synaptic membrane) (Rattus norvegicus, UniProt P18508+P62813); experiment: ^3 H-ZOLPIDEM binding, crude synaptic membranes; set-up: species or system Sprague Dawley rat; conditions: 2 nM ^3 H-ZOLPIDEM, rat cerebellum membranes
T3 construct: from tissue; host or cells: crude synaptic membranes of Sprague Dawley rat cerebellum
T3 sequence (P62813 28-455): as the sequence (P62813 28-455) above
T3 sequence (P18508 39-466): as the sequence (P18508 39-466) above
Procedure: as §3
as §4, with “ligand. The different indole derivatives were added in a volume of 50 μl in a concentration varying from 10^-9 to 10^-3 M. The results are reported in Table I hereinbelow.” for “ligand.”

rats = conditions: cited from earlier work
MBR [8] = conditions: in words; cited from earlier work
MBR [9] = conditions: in words; cited from earlier work; remark: listed apart in the source
GABAA receptor = conditions: in words; cited from earlier work

## CC(=O)[C@H]1CC[C@H]2[C@@H]3CC[C@H]4C[C@H](O)CC[C@]4(C)[C@H]3CC[C@]12C [3-α-hydroxy-5α-pregnan-20-one(3-αOH-DHP), 3-α-hydroxy-5α-pregnan-20-one]
GABAA receptors
  modulation of GABA action: positively modulate

## CCCCCCN(CCCCCC)C(=O)Cc1c(-c2ccc(F)cc2)[nH]c2ccccc12 [compound 27]
[1]
  selectivity ratio: 100 to 500
[2]
  IC50: 20 nM
[3]
  IC50: > 1000 nM
[4]
  Effective concentration, maximal: 10^-7 M
  EC50: 3.3 nM
  Stimulation %: 300%
[5]
  IC50: 18 nM
  ^3 H-PK11195 / ^3 H-RO5-4864: 0.9
Sprague Dawley rats; 0.5 mg/kg i.v.
  Entries in open arms, test after 10 min injection: 5
  Entries in open arms, test after 20 min injection: 2
  Entries in open arms, test after 30 min injection: 1
Sprague Dawley rats
  anxiolytic potency ranking: most potent anxiolytic drugs
  behavioral output of rats in the elevated X maze test: increase the behavioral output
[6]
  IC50: > 1000 nM

## CCCN(CCC)C(=O)Cc1c(-c2ccccc2)[nH]c2ccccc12 [Compound No. 2]
[2]
  IC50: 22.5 nM
[3]
  IC50: > 1000 nM
[4]
  Effective concentration, maximal: 10^-9 M
  EC50: 0.33 nM
  Stimulation %: 200%
[5]
  IC50: 32.5 nM
  ^3 H-PK11195 / ^3 H-RO5-4864: 1.4
Sprague Dawley rats; 20 mg/kg i.v.
  Entries in open arms, test after 10 min injection: 0
  Entries in open arms, test after 20 min injection: 0
  Entries in open arms, test after 30 min injection: 0
Sprague Dawley rats; 200 mg/kg i.v.
  Entries in open arms, test after 10 min injection: 4
  Entries in open arms, test after 20 min injection: 0
  Entries in open arms, test after 30 min injection: 0
Sprague Dawley rats
  behavioral output of rats in the elevated X maze test: increase the behavioral output
[6]
  IC50: > 1000 nM
[7]
  IC50: > 1000 nM

## CC(=O)[C@H]1CC[C@H]2[C@@H]3CC=C4C[C@@H](OS(=O)(=O)O)CC[C@]4(C)[C@H]3CC[C@]12C [pregnenolone sulphate]
GABAA receptors
  modulation of GABA action: negatively modulate

## CCCCCCN(CCCCCC)C(=O)Cc1c(-c2ccc(Cl)cc2)[nH]c2ccc(Cl)cc12 [compound 43]
[1]
  selectivity ratio: 100 to 500
Sprague Dawley rats; 0.5 mg/kg i.v.
  Entries in open arms, test after 10 min injection: 4
  Entries in open arms, test after 20 min injection: 2
  Entries in open arms, test after 30 min injection: 1
Sprague Dawley rats
  anxiolytic potency ranking: most potent anxiolytic drugs
  behavioral output of rats in the elevated X maze test: increase the behavioral output

## C[C@]12CC[C@@H](O)C[C@@H]1CC[C@@H]1[C@@H]2CC[C@]2(C)[C@@H](C(=O)CO)CC[C@@H]12 [3α,21-dihydroxy-5α-pregnan-20-one(THDOC), 3α,21-dihydroxy-5α-pregnan-20-one]
GABAA receptors
  modulation of GABA action: positively modulate

## CCCN(CCC)C(=O)Cc1c(-c2ccc(Cl)cc2)nc2ccc(Cl)cn12 [Alpidem]
rats; dose-related, reduced by both PK-11195 and Flumazenil
  conflict response: anticonflict (anxiolytic) action
MBR [8]
  affinity for the MBR: high affinity
MBR [9]
  cholesterol influx into mitochondria and formation of pregnenolone: facilitates cholesterol influx into mitochondria and the formation of pregnenolone
GABAA receptor
  binding to the GABAA receptor / BZD recognition sites on GABAA receptors: high affinity

## CN1C(=O)CN=C(c2ccc(Cl)cc2)c2cc(Cl)ccc21 [4-Cl-Diazepam]
rats; rats, small doses, partially resistant to Flumazenil, sensitive to PK-11195
  conflict response: proconflict response
MBR [8]
  affinity for the MBR: high affinity
MBR [9]
  cholesterol influx into mitochondria and formation of pregnenolone: facilitates cholesterol influx into mitochondria and the formation of pregnenolone
GABAA receptor
  binding to the GABAA receptor / BZD recognition sites on GABAA receptors: binds to the GABAA receptor
